In the NIST ThermoML archive (doi:10.1021/je060271a):

Details: 303.15 K, Liquid, Vibrating tube method

CCCCCCCC(=O)OCC(COC(=O)CCCCCCC)(COC(=O)CCCCCCC)COC(=O)CCCCCCC [pentaerythritol tetraoctanoate]
Details	mass density [kg/m3]
28411 kPa	972
28450 kPa	971.9
28485 kPa	972
28563 kPa	972.1
28635 kPa	972
28718 kPa	972.1
28794 kPa	972.2
28833 kPa	972.2
28858 kPa	972
28881 kPa	972.2
28903 kPa	972.2
28932 kPa	972.2
28954 kPa	972.3
28977 kPa	972.2
29007 kPa	972.1
29030 kPa	972.2
29057 kPa	972.3
29081 kPa	972.3
29107 kPa	972.3
29129 kPa	972.3
29159 kPa	972.2
29182 kPa	972.4
29208 kPa	972.2
29237 kPa	972.4
29263 kPa	971.8
29291 kPa	972.4
29316 kPa	972.4
29341 kPa	972.6
29366 kPa	972.4
29397 kPa	972.5
29422 kPa	972.5
29447 kPa	972.5
29476 kPa	972.5
29501 kPa	972.6
29527 kPa	972.6
29551 kPa	972.5
29579 kPa	972.5
29610 kPa	972.6
29627 kPa	972.6
29648 kPa	972.6
29671 kPa	972.6
29696 kPa	972.7
29725 kPa	972.7
29750 kPa	972.6
29775 kPa	972.6
29807 kPa	972.8
29827 kPa	972.7
29857 kPa	972.7
29882 kPa	972.8
29912 kPa	972.7
29937 kPa	972.6
29963 kPa	972.7
29993 kPa	972.9
30018 kPa	972.7
30044 kPa	972.8
30069 kPa	972.8
30100 kPa	972.9
30125 kPa	972.8
30151 kPa	972.8
30183 kPa	972.9
30209 kPa	973
30234 kPa	973
30260 kPa	973
30291 kPa	972.9
30317 kPa	973
30343 kPa	972.9
30374 kPa	973
30400 kPa	972.9
30431 kPa	973.1
30457 kPa	973
30483 kPa	973.1
30510 kPa	973.1
30541 kPa	973
30568 kPa	972.9
30595 kPa	973.1
30626 kPa	973.2
30652 kPa	973.1
30685 kPa	973.2
30711 kPa	973.2
30738 kPa	973.3
30765 kPa	973.1
30797 kPa	973.2
30824 kPa	973.2
30852 kPa	973.1
30884 kPa	973.2
30911 kPa	973.4
30938 kPa	973.2
30971 kPa	973.2
30998 kPa	973.3
31025 kPa	973.3
31057 kPa	973.4
31085 kPa	973.5
31113 kPa	973.5
31145 kPa	973.5
31172 kPa	973.6
31206 kPa	973.4
31234 kPa	973.5
31261 kPa	973.5
31290 kPa	973.5
31323 kPa	973.5
31351 kPa	973.5
31380 kPa	973.6
31413 kPa	973.5
31442 kPa	973.6
31469 kPa	973.7
31503 kPa	973.6
31532 kPa	973.7
31560 kPa	973.7
31589 kPa	973.6
31624 kPa	973.7
31653 kPa	973.6
31681 kPa	973.8
31715 kPa	973.8
31744 kPa	973.7
31773 kPa	973.7
31808 kPa	973.8
31836 kPa	973.7
31865 kPa	973.8
31900 kPa	973.8
31929 kPa	973.8
31958 kPa	973.8
31994 kPa	973.8
32025 kPa	973.9
32055 kPa	973.9
32084 kPa	973.8
32120 kPa	973.9
32150 kPa	974
32179 kPa	973.9
32215 kPa	973.9
32244 kPa	974
32274 kPa	974
32311 kPa	974
32340 kPa	974
32370 kPa	974.1
32407 kPa	974
32432 kPa	974.1
32469 kPa	974.1
32499 kPa	974.2
32535 kPa	974.2
32566 kPa	974.2
32596 kPa	974.2
32626 kPa	974.2
32663 kPa	974.2
32693 kPa	974.1
32730 kPa	974.3
32761 kPa	974.3
32792 kPa	974.3
32829 kPa	974.3
